Tests used:
S. hermonthica seeds = assay: Germination assay using S. hermonthica seeds; type: in vivo, Striga hermonthica; conditions: positive control, 10^−7 M (FIG. 2f)
Description: The levels of strigolactones released to hydroponic culture media were estimated by germination stimulating activity using S. hermonthica seeds as described previously ^32 Strigolactones were identified and quantified on LC-MS/MS by comparing the retention time and full-scan spectrum with those of authentic standards. We synthesized deuterium-labeled epi-5DS (d1-epi-5DS) and used as an internal standard for quantitative analysis using LC-MS/MS. Germination assays using S. hermonthica were performed as described previously^32 For each bioassay, de-ionized water and (+)-strigol solution were used as negative and positive controls, respectively.

[1] = tested on: tiller bud outgrowth of rice
Procedure: Rice and Arabidopsis seeds were surface-sterilized and the seedlings were first grown aseptically on agar media. Plants were then grown hydroponically in growth chambers. For both rice and Arabidopsis, strigolactones were added to the hydroponic culture medium.
We used rice normal cultivars (Oryza sativa L. cv. Shiokari and cv. Nipponbare) and tillering dwarf mutants (FIG. 6) in this study. Rice seeds were washed in 70% ethanol for 30 sec, sterilized in 2.5% sodium hypochlorite solution for 15 min, rinsed with sterile water, and then imbibed at 28° C. in the dark for 2 days. Germinated seeds were transferred into hydroponic culture media^39 solidified with 0.6% agar (pH5.7) and cultured at 25° C. under fluorescence white light (150-200 μmol m^−2 s^−1) with a 16 h light/8 h dark photoperiod for 5 days. Each seedling was then transferred to a glass vial containing a sterilized hydroponic culture solution (13 ml), fixed with a piece of sponge at the root-shoot junction to the top of the vial, and grown under the same condition for additional 7 days (total 2 weeks). The hydroponic solution was supplemented every 3 days. For large-scale cultures, the 2-weeks-old seedlings were transferred into a 4-L porcelain pot containing the same hydroponic solution and grown under the same condition. After the transfer to pots, the solution was renewed weekly.
To further investigate the relationships between the D10/D17-derived branching inhibitor and strigolactones, we examined the effect of strigolactone treatment on rice d mutants.

D10 transcript = assay: qRT-PCR of D10 transcript levels in rice roots; type: in vivo, Oryza sativa; conditions: roots of 8-day-old seedlings, 1 μM (+)-GR24 for 24 h (FIG. 3h)
Procedure: We performed quantitative reverse transcription-PCR (qRT-PCR) to determine D10 transcript levels, according to the method described before^38. Total RNA was extracted from roots using RNeasy Maxi kit (Qiagen). qRT-PCR was carried out to determine D10 transcript levels using gene specific primers and a Taq-Man probe (Table 1 as describe above). Ubiquitin expression was used as an internal standard.

[2] = tested on: axillary bud outgrowth of Arabidopsis; assay: Axillary bud outgrowth (shoot branching) of Arabidopsis in hydroponic culture; type: in vivo, Arabidopsis thaliana; conditions: 5 μM in the hydroponic culture media
Procedure: Plants were then grown hydroponically in growth chambers. […] We used Arabidopsis thaliana ecotype Col-0 as the wild type and max mutants (FIG. 6). Seeds were sterilized in 1% sodium hypochlorite solution for 5 min, rinsed with sterile water, and stratified for one day at 4° C. […] Plants were then transferred to a glass pot containing 400 ml hydroponic solution^41 and grown under the same environmental condition for additional 15 days. The solution was renewed every 3 days. To measure germination stimulants, sterilized and stratified seeds were placed on glass beads (30 ml) wetted with 1/10 strength MS liquid media (10 ml) in a Petri dish (9 cm diameter) and grown for 14 days under the same conditions above. The culture media were collected and subjected to S. hermonthica germination assay.

CC1=C[C@H](O/C=C2/C(=O)O[C@@H]3C4=C(C[C@H]23)[C@@H](O)CCC4(C)C)OC1=O [(+)-strigol, (+)-Strigol]
germination of S. hermonthica seeds (S. hermonthica seeds): germination induced

CC1=C[C@H](O/C=C2/C(=O)O[C@@H]3c4ccccc4C[C@H]23)OC1=O [GR24]
tiller bud outgrowth at 1 μM ([1]; 1 μM, 2-week-old d10-1 and d17-1 seedlings): nearly fully inhibited | lowest concentration at which the inhibitory effect on tiller bud outgrowth was detectable ([1]; 2-week-old d10-1 and d17-1 seedlings): 10 nM | inhibition of tiller bud outgrowth ([1]; 2-week-old d10-1 and d17-1 seedlings, compound applied to the media): inhibited tiller bud outgrowth of 2-week-old d10-1 and d17-1 seedlings in a dose-dependent manner | effect on d3-1 mutant plants ([1]; 6-week-old d3-1, 2 μM in the culture media): no visible effect | branching phenotype and plant height of d10-1 mutant ([1]; 6-week-old d10-1, 2 μM in the culture media): complemented | sensitivity of tiller bud outgrowth of the d3-1 mutant ([1]; d3-1 mutant seedlings (defective in probable signaling component)): insensitive | morphological abnormalities in wild type seedlings after treatment ([1]; in vivo): No morphological abnormalities were evident | plant height of wild type seedlings ([1]; in vivo): did not change the plant height | D10 transcript levels in d10-1 and wild type seedlings (D10 transcript): decreased | sensitivity of branching of max2 mutants [2]: insensitive | enhanced branching phenotype of max3 and max4 mutants ([2]; 30-day-old plants): rescued

From US8633356B2, “Method for controlling root parasitic plants” (Riken, priority 2008, dated 2014)
